For data set [1] the following is noted: cited from earlier work.
The subject of data set [2] is pyresis induced by LPS from E. coli in rats. The experiment in a line: Anti-pyretic effect, pyresis model induced by LPS from E. coli. The following applies: 15 mg/Kg, from the first 60 minutes. The data set is classed as in vivo, rat. The protocol:
After the assessment of the anti-nociceptive and anti-inflammatory effects, the anti-pyretic effect was assessed for increasing doses of the combination IBU:L-ARG in a ratio IBU/L-ARG=3.26, in comparison with the administration of an agent that is well known as capable of control fever, such as acetaminophen (15 mg/Kg) (see FIG. 5).

The test system of data set [3] is inflammation induced with carrageenan in rats. The experiment in a line: Anti-inflammatory effect, inflammation model by carrageenan. It is filed as in vivo, rat. The following applies: 10 mg/Kg, each 8 hours, from the third hour. How it is done: From the results of the previous study, and following a model where inflammation is induced with carrageenan administration for generating a bruise, we determined the anti-inflammatory effect of the L-ARG-IBU combination, in comparison with the administration of a treatment of known effects (positive control: diclofenac 10 mg/Kg), and of a control group, administered each 8 hours for a period of 48 hours. This model presented a maximum inflammation level of towards 6-8 hours, after which inflammation starts to decrease gradually.

The conditions of data set [4]: in vivo; cited from earlier work.

`CC(C)Cc1ccc(C(C)C(=O)O)cc1` (stereo not shown) [Ibuprofen]: the solubility in water entry in data set [1] is on record as “relatively insoluble in water”.

As for `CC(=O)Nc1ccc(O)cc1` [acetaminophen], in data set [2], the “temperature after drug administration” value is “temperature returned to basal levels”.

`O=C(O)Cc1ccccc1Nc1c(Cl)cccc1Cl` [diclofenac]: in data set [3], the development of edema entry was “reduced the development of edema”.

In the case of ibuprofen arginate, the “onset of the analgesic action compared to ibuprofen alone” value in data set [4] is on record as “fast onset of the analgesic action”.

The values are drawn from patent US9186342B2, “Combination of an NSAID and an amino acid” (LABORATORIOS SENOSIAIN S.A. DE C.V., priority 2010, dated 2015).
